Series [1] relates to human microvascular endothelial cells (HMVECs). Description: VEGF-induced migration of HMVECs, modified Boyden chamber. In kind it is cell-based. On the procedure:
Endostatin peptides were tested for anti-endothelial cell migration activity. Inhibition of VEGF-induced migration of human microvascular endothelial cells (HMVECs) was determined using several doses of endostatin peptides (FIG. 5). Human peptides were used because the cells were of human origin and the migration response of the HMVECs was assayed using a modified Boyden chamber. VEGF (5 ng/ml) was used a chemotactic agent and cells were challenged with human endostatin (Entremed; EM-ES), human Fc-Endostatin (nFcES), human P1 (hP1), human P2 (hP2), human P6 (hP6), and human P1-H1/3A (hP1-H1/3A). Total migration per membrane was quantified from the capture images using Scion Image Software (National Institutes of Health) and the unpaired Student T test was used for statistical analysis. […] No significant differences in inhibition between these concentrations were observed. At higher and lower concentrations less or no inhibition was observed. At 500 ng/ml of hP1 no inhibition was observed. Thus, similar to full-length endostatin, there is a U-shaped response to hP1 inhibition of EC migration.
The motility response of HMVEC-d cells was assayed using a modified Boyden chamber. Cells were plated in T75-cm2 flasks at 0.5×10^6 cells per flask and allowed to grow for 48 h (˜70% confluent) prior to the migration assay. To facilitate cell adhesion, the upper membrane of a transwell ([…]; Costar) was coated with fibronectin ([…]; Becton Dickinson, Bedford, Mass.) for 1 h at 37° C. Coated membranes were rinsed with PBS and allowed to air dry immediately before use. Cells were detached by trypsinization, treated with trypsinization neutralization solution (Clonetics), and resuspended at a final concentration of 1×10^6 cells/ml in serum-free endothelial basal medium (EBM; Clonetics) containing 0.1% BSA. Cells (200,000 in 0.2 ml) were then treated with 0.2 ml of EBM/BSA containing endostatin or peptides at the indicated concentrations. Cells were incubated for 20 min. at 37° C. with occasional shaking. Cells (50,000 in 100 μl) were added to the upper chamber of the transwell. EBM or EBM supplemented with VEGF (5 ng/ml) was added to the lower chamber and cells were allowed to migrate toward the bottom chamber for 4 h in a humidified incubator containing 5% CO2. Transwell filters were rinsed once with PBS and fixed and stained using a Diff-Quik staining kit (Baxter) following the manufacturer's protocol. Non-migrated cells were removed from the upper chamber with a cotton swab. Stained filters were cut out of the chamber and mounted onto slides using Permount (Fisher). The number of migrated cells was measured using microscopy (three fields from each membrane were captured using a 40× objective), and images were captured with a CCD camera using SPOT software. Total migration per membrane was quantified from the captured images using Scion Image software (National Institutes of Health). All experiments were run in triplicate. The unpaired Student t-test was used for statistical analysis.

Series [2] has as its system human pancreatic tumor cells BxPC-3. Description: BxPC-3 human pancreatic tumor model in SCID mice. Type of series: in vivo. To be noted: human endostatin peptides s.c. twice a day at 7 mg/kg/d, final measurement at 28 days, n=3. On the procedure:
These peptides were initially tested for anti-tumor activity employing the human pancreatic tumor cells BxPC-3 cells, which were implanted in the s.c. dorsa of SCID mice. For systemic treatment, human endostatin peptides, P1-P8, were administered subcutaneously (s.c.) twice a day at 7 mg/kg/d due to the high clearance rate from the mouse circulation. Full-length Fc-Endostatin, hFcES was administered subcutaneously only once per day at a dose of 20 mg/kg/d. PBS was used as a control.
(§1) BxPC-3 and LLC cells were grown in cell culture as described above. […] Mice were shaved and the dorsal skin was cleaned with ethanol before tumor cell injection. A suspension of 5×10^6 tumor cells in 0.1 ml RPMI-1640 (for BxPC-3) or DMEM (for LLC) was injected subcutaneously (s.c.) into the dorsa of mice at the proximal midline. BxPC-3 cells were implanted in SCID mice and LLC in C57B1/6J mice.
(§2) The mice were weighed and tumors were measured every 3-5 days in two diameters with a dial-caliper. Volumes were determined using the formula a2×b×0.52 (where a is the shortest and b is the longest diameter). Data is represented as volume of treated tumor over control (T/C). At the completion of each experiment, the mice were euthanized with CO2 asphyxiation. Tumors were fixed in 10% buffered Formalin (Fisher Scientific, Fair Lawn, N.J.) and paraffin-embedded.
(§3) For treatment of tumor-bearing mice, tumor volumes were allowed to grow to approximately 100 mm^3, and mice were randomized. Treatment was performed by single bolus s.c. injections. Peptides were administered twice a day (every 12 hrs). Doses indicated for peptides were corrected for the purity of peptides (approximately 70%). For example, mice injected with 4 mg/kg/d peptide, were actually injected with 2.8 mg/kg/d after correction. The unpaired Student t-test was used for statistical analysis.

In the next series the test system is female C57BL/6 mice. Description: Estrus cycling by daily vaginal smears. In kind it is in vivo, mouse. The following applies: larger experiment, 2.5 mg/kg. The text has this: To investigate the effect of the angiogenesis inhibitors used above on estrus cycling, mice from the first two studies underwent daily vaginal smears in the middle of the endometriosis experiment. The stage of the estrus cycle was classified by evaluating the cells present at the cytological staining. Briefly, this was done as follows. In order to synchronize estrus cycling prior to surgery, mice were housed in groups of 5 for a week. After endometriosis surgery, with the intention to prevent the suspension of cycling, all mice were housed in individual cages. In the absence of a male, female mice housed in groups may become anestrus. Starting post surgical week two, estrus cycling was evaluated by cytological analysis of daily vaginal smears over one week's period. Exams were performed each day during the early morning hours. Autoclaved, wetted, blunt toothpicks were used to gently scrape the superficial cell layer of the animal's vagina. Cells were transferred to a drop of Evan's blue in 0.9% saline on a glass slide for staining, sealed under a glass cover slip and examined under a microscope (Carl Zeiss, Thornwood, N.Y.). Subsequently, each slide was analyzed under low magnification (×40 to ×100) by two independent investigators, who were masked for the form of treatment and previous data from every mouse.

The subject of the next series is LLC. Description: Lewis lung carcinoma (LLC) tumor model in C57Bl/6J mice. Type of series: in vivo, mouse. To be noted: for tumor volume: LLC, s.c. twice a day 2.8 mg/kg/day, n=5 (FIG. 7); for inhibited LLC (tumor inhibition): peptides s.c. twice a day at 2.8 mg/kg/d, C57B1/6J mice. On the procedure:
Control mice were treated with PBS. In these experiments, LLC cells were implanted into the s.c. dorsa of C57B1/6J mice, and systemically treated. Peptides (mP1, mP2, mP5, and mP6) were injected (s.c.) twice a day at a dose of 2.8 mg/kg/d, whereas endostatin and PBS were administered once a day at a dose of 20 mg/kg/d.
as §1
Animals with Lewis Lung carcinoma (600-800 mm^3 tumors) were euthanized, and the skin overlying the tumor was cleaned with Betadine and ethanol. Tumor tissue was excised under aseptic conditions. A suspension of tumor cells in 0.9% normal saline was made by passage of viable tumor tissue through a sieve and a series of sequentially smaller hypodermic needles of diameter 22- to 30-gauge. The final concentration was adjusted to 1×10^7 cells/ml, and the suspension was placed on ice. The injection of tumor cells was performed as described above.
as §2, §3

The subject of series [3] is vessel density (CD31) of LLC tumors. Description: Vessel density (CD31 staining) of LLC tumor sections. Type of series: in vivo, mouse. To be noted: peptides 2.8 mg/kg/d s.c. twice a day. On the procedure:
To determine the effect on angiogenesis after mP1 treatment, LLC tumors treated with mP1, mP2, and endostatin at equimolar concentration were analyzed for vessel density (CD31). […] In each case, peptides were administered twice a day s.c. and LLC tumor sections from day 13 were formalin-fixed paraffin-embedded and then stained with CD31 (PECAM). FIG. 2C show the determination of vessel density and the Y axis is expressed as %CD31/high power field (hpf).
Tumors were fixed in 10% buffered Formalin overnight at 4° C. The next day, tumors were washed three times in PBS and paraffin-embedded. Sections (5 μm) were permeabilized with 40 μg/ml proteinase K (Roche Diagnostics Corp.) in 0.2 M Tris-HCl buffer (pH 7.6) for 25 minutes at 37° C. and washed with PBS. PECAM (1:250) was incubated at 4° C. overnight. Stainings were amplified using tyramide signal amplification direct and indirect kits (NEN Life Science Products Inc., Boston, Mass.). Sections were photographed at 400× magnification using a NIKON TE300 microscope. Vessel density (average of three fields) was determined by IPLab software. The unpaired Student t-test was used for statistical analysis.

The subject of the next series is Female SCID mice. To be noted: mouse, in vivo.
The test system of another series is C57B1/6J mice. Description: Corpus luteum formation in ovaries. The following applies: after 4 weeks of treatment, compared to control animals. Type of series: in vivo, mouse. The text has this: The corpus luteum (CL) is the remnant of the graafian follicle after ovulation consisting mainly of connective tissue, granulosa and theca interna cells. The presence of Corpora lutea in an ovary is indicative of recent ovulation. We therefore examined the ovaries of mP-1 and vehicle treated mice for CL formation. After 4 weeks of treatment of C57B1/6J mice with induced endometriosis with mP-1, ovaries were removed, fixed in formalin and paraffin embedded. Ovaries from twelve, randomly chosen mice (three mice of both groups from the first two experiments) were sectioned (4-6 μm), and four consecutive sections were put on one slide. Every other slide was then stained with hematoxylin and eosin (H/E). The highest number of Corpora lutea per ovary on each slide was recorded, all numbers added and the mean number calculated.

We go through 11 substances from patent US7645735B2, “Anti-angiogenic peptides for treating or preventing endometriosis” (Children's Medical Center Corporation, priority 2003, dated 2010).

No end group written: not given here.

Protocol for Female SCID mice: Female SCID mice were injected with human pancreatic tumor cells subcutaneously. When tumors reached a volume of approximately 100 mm^3 endostatin or placebo treatment was initiated and continued until the end of the study. After three days, females were mated.
Human BxPC-3 cells were grown in cells culture as described above. After washing with sterile PBS, cells were trypsinized and briefly re-suspended in RPMI 1640 medium containing 10% fetal calf serum (FCS) and 1% glutamine penicillin streptomycin (GPS) solution. After centrifuging, the cell concentration was adjusted to 50×10^6 cells/ml in additive-free RPMI 1640 medium and kept on ice. Female SCID mice were shaved on the dorsal side and the naked skin was cleaned with ethanol prior to injection. A suspension of 5×10^6 cells/ml in 100 μl was then injected subcutaneously into the dorsa of these mice at about one centimetre left of the midline.
Mice were weighed and tumors were measured every 7 days in two diameters using a dial-caliper. Tumor volumes were calculated using the formula a^2×b×0.52, while a being the shorter and b being the longer diameter. When tumors had reached a volume of approximately 100 mm^2 mice were divided into four groups.
During the first experiment, one group received endostatin (20 mg/kg; n=8) or vehicle (n=8) via subcutaneous osmotic pumps (Durect Corp., Cupertino, Calif.). Pumps were inserted via a small incision and placed into a subcutaneous pocket on the right lateral aspect of the animals' dorsa. The pumps were changed every week for a total of four weeks.
The other group received daily subcutaneous injections of endostatin (100 mg/kg, n=5) or vehicle (n=5) for the same period.
During a second study we repeated the experiment with endostatin in subcutaneous pumps. The other group in this series received the murine N-terminal fragment of endostatin (mP-1) at a dose of 2.5 mg/kg twice daily or PBS (n=5 each).
Three days after initiation of treatment female mice were added to a cage containing a male SCID mouse in a 1:1 ratio. All males had been housed separately three days prior to encountering the females and female bedding had been added to the male cages to enhance the males' libido.
For the following seven days every female was checked for a vaginal mucous plug as a sign of mating. These exams were performed during the early morning hours to optimize the results. Once a mucous plug had been noticed, mating was considered ‘successful’, and the female was not further examined in order to minimize iatrogenic stress.
Over the course of pregnancy the following parameters were assessed: ‘Mating Time’ describing the time between male encounter and the occurrence of a mucous plug; ‘Pregnancy Rate’, measured by ultrasound 15 days after the mucous plug was observed. The number of viable fetus was counted during this procedure; ‘Length of Pregnancy’, as measured from the time of successful mating to delivery; ‘Number of Total and Viable Litter’, counted on the day of birth; ‘Weight of Individual Pup’, by weighing the entire litter on the day of birth and calculating the mean weight.

Consider “HPTWPQKSVWHGSDPNGRRLTESY (listed as Homo sapiens) [hP6]”, for which the “inhibition of EC migration” value was “only inhibited at doses of 100 and 200 ng/ml” in series [1] (200 and 100 ng/ml, VEGF 5 ng/ml); “no inhibition” in series [1] (concentrations lower than 100 ng/ml).
In the case of “HSHRDFQPVLHLVALNSPLSGGMRG (listed as Homo sapiens) [hP1]”, the “inhibited BxPC-3 (tumor inhibition)” value in series [2] was found to be 39%. For the same substance, the “inhibition of EC migration” value in series [1] (500 ng/ml, VEGF 5 ng/ml) is listed as “no inhibition”; in series [1] (100, 62.5, and 25 ng/ml, VEGF 5 ng/ml) it was “best inhibition”.
Take “GSEGPLKPGARIFSFDGKDVLRHPT (listed as Homo sapiens) [hP5]”: in series [2], the “inhibited BxPC-3 (tumor inhibition)” value was determined as 29%.
As for HPAWPQKSVWHGSDPSGRRLMESY [mP6], the “arrest of the estrus cycle” value in the series with female C57BL/6 mice is “Neither mP-1, not the other two peptides, mP-6 and mP-1-H led to an arrest of the estrus cycle”.
On to “TFRAFLSSRLQDLYSIVRRADRAAV (listed as Homo sapiens) [hP3]”, for which the “inhibited BxPC-3 (tumor inhibition)” value in series [2] is reported as “failed to inhibit tumor growth”.
With “HTHQDFQPVLHLVAL (listed as Mus musculus) [mP1-15]”, the tumor volume entry in the series on LLC is on record as “inhibit tumor volume”.
For “MRGIRGA DFQAFQQARA VGLSGTFR (MRGIRGADFQAFQQARAVGLSGTFR; listed as Mus musculus) [mP2]”, the “reduction of vessel density (%CD31/hpf)” value in series [3] is on record as “no effect”. Further, in the series on LLC (higher concentration 14 mg/kg/d), the LLC tumor formation result was “could inhibit LLC tumor formation as well as mP1 at 2.8 mg/kg/d”. The “inhibited LLC (tumor inhibition)” value in the series on LLC is “No or insignificant activity”.
As for “GSQGQVQPGARIFSFDGRDVLRHPA (listed as Mus musculus) [mP5]”, the “inhibited LLC (tumor inhibition)” value with LLC is on record as “No or insignificant activity”.
As for “HTHQDFQPVLHLVALNTPLS (listed as Mus musculus) [mP1-20]”, the tumor volume entry in the series with LLC is given as “inhibit tumor volume”.
On to HTHQDFQPVLHLVALNTPLSGGMRGIR [mP1], for which, in the series on Female SCID mice, the “effect on the offspring” value is recorded as “did not see any negative effect on the offspring”, the length of pregnancy was found to be 20 days, the “litter size per delivery” value is on record as 7.4±1.3 and the “mean weight of pups on the day of delivery” value is on record as 1.29 g. For the same substance, the “pregnancy rate with live births” value in the series on Female SCID mice was “All mice receiving mP-1 became pregnant”. Also, the “mean number of Corpora lutea in ovaries” value in the series on C57B1/6J mice is on record as “did not reduce the mean number of Corpora lutea”. Also, the “arrest of the estrus cycle” value in the series on female C57BL/6 mice was “Neither mP-1, not the other two peptides, mP-6 and mP-1-H led to an arrest of the estrus cycle”.
Consider ATAQDFQPVLHLVALNTPLSGGMRGIR [mP1-H1/3A], for which the “arrest of the estrus cycle” value with female C57BL/6 mice was “Neither mP-1, not the other two peptides, mP-6 and mP-1-H led to an arrest of the estrus cycle”.
